Data set [1] has as its target T1, PI 3-kinase delta (Homo sapiens, UniProt O00329). In words: TR-FRET Adapta assay, assay F. Particulars: read-out: Assay F PI3Kδ IC50. For orientation: In TR-FRET formats the signal depends on donor and acceptor labels being close together.
Target sequence in this assay (O00329 whole entry): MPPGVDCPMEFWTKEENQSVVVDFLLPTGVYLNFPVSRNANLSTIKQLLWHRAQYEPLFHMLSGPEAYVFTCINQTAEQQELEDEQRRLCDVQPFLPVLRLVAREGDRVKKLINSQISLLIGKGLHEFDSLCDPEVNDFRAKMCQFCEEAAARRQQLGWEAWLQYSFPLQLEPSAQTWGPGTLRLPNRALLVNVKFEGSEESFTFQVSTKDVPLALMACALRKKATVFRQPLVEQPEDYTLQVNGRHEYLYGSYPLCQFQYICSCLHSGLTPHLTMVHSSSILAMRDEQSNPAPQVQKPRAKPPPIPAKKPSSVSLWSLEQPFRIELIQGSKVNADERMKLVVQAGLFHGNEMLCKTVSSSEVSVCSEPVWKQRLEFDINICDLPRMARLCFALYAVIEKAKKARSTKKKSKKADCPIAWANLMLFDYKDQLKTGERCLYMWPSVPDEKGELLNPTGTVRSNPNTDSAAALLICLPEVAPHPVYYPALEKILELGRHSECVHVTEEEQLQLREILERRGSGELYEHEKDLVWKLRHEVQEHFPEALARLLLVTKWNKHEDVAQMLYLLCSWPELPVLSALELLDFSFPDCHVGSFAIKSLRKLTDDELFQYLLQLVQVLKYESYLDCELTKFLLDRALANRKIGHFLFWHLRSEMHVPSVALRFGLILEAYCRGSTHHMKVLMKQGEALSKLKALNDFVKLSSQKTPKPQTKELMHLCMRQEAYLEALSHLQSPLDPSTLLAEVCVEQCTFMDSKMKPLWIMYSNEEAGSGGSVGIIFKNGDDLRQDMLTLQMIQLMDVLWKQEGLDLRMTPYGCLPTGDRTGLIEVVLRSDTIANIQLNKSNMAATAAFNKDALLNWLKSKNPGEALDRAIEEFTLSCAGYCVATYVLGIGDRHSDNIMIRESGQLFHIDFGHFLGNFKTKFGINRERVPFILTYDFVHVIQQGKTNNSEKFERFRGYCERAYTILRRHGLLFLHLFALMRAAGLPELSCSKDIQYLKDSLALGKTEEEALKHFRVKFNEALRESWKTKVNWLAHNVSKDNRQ
Target sequence in this assay (P27986 461-568 partner): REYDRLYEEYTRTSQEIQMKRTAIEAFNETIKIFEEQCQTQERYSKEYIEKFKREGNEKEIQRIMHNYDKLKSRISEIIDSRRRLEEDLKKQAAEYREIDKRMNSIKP
Another data set has as its target Vps34 (Homo sapiens, UniProt Q8NEB9). The data set is described as follows: Kinase Glo Luminescent Kinase Assay (Kglo), assay C. Format: biochemical. Particulars: read-out: Assay C VPS34 IC50. On the technique in general: Kinase-Glo measures the ATP left after a reaction by luminescence.
The target of a further data set is mTOR (Homo sapiens, UniProt P42345). The data set is described as follows: Lanthascreen kinase binding assay, assay G. Particulars: read-out: Assay G mTOR IC50.
The target of data set [2] is T2, PI 3-kinase beta (Homo sapiens, UniProt P42338). In words: Kinase Glo Luminescent Kinase Assay (Kglo), assay B. Format: biochemical. The note with it: read-out: Assay B PI3Kβ IC50.
Target sequence in this assay (P42338 whole entry): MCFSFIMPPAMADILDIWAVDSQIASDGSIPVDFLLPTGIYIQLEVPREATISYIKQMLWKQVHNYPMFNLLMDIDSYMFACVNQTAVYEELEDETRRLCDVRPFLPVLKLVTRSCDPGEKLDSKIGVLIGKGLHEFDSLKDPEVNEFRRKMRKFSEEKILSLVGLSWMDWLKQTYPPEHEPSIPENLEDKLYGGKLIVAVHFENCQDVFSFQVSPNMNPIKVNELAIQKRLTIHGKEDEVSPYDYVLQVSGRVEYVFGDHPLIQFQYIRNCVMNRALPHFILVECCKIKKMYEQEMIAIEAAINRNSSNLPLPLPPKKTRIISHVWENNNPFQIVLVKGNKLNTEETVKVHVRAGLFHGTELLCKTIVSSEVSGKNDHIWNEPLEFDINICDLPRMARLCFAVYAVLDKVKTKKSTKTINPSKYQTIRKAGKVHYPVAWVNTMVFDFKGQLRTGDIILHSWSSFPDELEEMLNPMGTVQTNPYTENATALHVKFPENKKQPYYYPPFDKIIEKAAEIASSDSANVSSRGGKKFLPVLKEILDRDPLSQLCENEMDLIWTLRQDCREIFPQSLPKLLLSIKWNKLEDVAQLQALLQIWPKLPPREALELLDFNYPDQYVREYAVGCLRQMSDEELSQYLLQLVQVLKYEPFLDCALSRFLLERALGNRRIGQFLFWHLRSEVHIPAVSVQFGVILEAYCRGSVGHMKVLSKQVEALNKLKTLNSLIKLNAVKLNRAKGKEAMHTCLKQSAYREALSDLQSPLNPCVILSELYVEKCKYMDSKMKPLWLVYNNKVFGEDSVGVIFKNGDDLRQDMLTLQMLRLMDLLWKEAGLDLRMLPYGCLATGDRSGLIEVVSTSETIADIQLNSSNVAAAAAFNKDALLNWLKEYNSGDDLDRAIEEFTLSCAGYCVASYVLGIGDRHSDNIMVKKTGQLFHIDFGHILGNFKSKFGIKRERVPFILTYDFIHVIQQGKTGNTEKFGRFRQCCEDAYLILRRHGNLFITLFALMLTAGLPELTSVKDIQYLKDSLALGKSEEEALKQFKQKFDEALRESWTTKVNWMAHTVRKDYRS
Target sequence in this assay (P27986 461-568 partner): as the sequence (P27986 461-568 partner) above
In data set [3] the target is T1, PI 3-kinase delta. The data set is described as follows: Cellular assay J1, p-Akt (S473) in Rat-1 cells, Surefire format. The format is cell-based. Particulars: non-asterisked data: version J1 (Surefire format), Rat-1 cells; read-out: Assay J PI3Kδ IC50.
Target sequence in this assay (O00329 whole entry): as the sequence (O00329 whole entry) above
Target sequence in this assay (Q63787 whole entry partner): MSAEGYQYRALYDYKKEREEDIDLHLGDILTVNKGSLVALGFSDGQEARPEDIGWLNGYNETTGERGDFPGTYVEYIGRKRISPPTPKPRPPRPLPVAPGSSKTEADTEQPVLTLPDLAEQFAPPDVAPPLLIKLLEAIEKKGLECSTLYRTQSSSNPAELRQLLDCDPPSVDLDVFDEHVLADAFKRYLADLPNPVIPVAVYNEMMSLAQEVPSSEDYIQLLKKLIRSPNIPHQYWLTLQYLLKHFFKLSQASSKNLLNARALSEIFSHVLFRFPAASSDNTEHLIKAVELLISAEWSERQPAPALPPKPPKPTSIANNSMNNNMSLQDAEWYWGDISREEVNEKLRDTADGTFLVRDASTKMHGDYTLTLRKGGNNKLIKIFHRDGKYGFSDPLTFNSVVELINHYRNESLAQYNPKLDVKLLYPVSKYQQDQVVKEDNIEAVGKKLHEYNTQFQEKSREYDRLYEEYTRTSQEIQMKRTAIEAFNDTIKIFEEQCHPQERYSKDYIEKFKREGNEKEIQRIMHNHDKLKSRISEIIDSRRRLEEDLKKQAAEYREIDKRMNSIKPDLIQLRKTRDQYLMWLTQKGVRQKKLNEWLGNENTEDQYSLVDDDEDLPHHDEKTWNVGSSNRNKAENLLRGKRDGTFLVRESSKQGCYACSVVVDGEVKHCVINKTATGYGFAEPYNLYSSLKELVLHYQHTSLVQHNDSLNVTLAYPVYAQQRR
A short description of data set [4]: Microsomal clearance assay (M). The note with it: intrinsic clearance in rat liver microsomes. A general note: Liver microsomes are vesicles of endoplasmic reticulum, rich in cytochrome P450 enzymes.
Method: The experiments were performed in 96-well glass plates at 37° C. on an automated Tecan EVO platform. Test compounds at a concentration of 10 mM in pure DMSO were diluted 1:1000 in water to 10 μM. […] Reactions were initiated by the addition of 150 μL of a cofactor solution containing 2 mM NADPH.
The subject of data set [5] is IL-8-induced neutrophil shape change in human whole blood. In words: Whole blood neutrophil shape change assay (L). Format: cell-based. The note with it: IL-8, human whole blood, read-out: Assay L WBSC IC50.
Method: Whole Blood Neutrophil Shape Change Assay (L)
IL-8 was made up to 2 μM stocks in 0.1% bovine serum albumin/PBS and stored at −80° C. On the day IL-8 was diluted in PBS (phosphate buffered saline) 10 minutes before use. IL-8 was used at final concentration of 2 nM and a concentration range from 0.003 to 200 nM for the donor dose response curve.
Assay fixative solution was prepared fresh each day from 10× concentrated CellFIX™ solution diluted 1:10 in sterile distilled water and then 1:4 with PBS. Assay fixative solution was kept on ice prior to use.
A 10× lysis buffer was prepared in advance by dissolving 20.75 g NH4Cl and 2.5 g KHCO3 in 250 ml sterile H2O. This 10× lysis buffer was filtered under sterile conditions and stored for up to two weeks at 4° C. On the day a 1× lysis solution was prepared with sterile distilled H2O and kept on ice prior to use.
The test compounds were prepared as 10 mM stock solutions in 100% DMSO and were stored at 4° C. Once in use for an assay 10 mM stock compounds were thawed and stored at RT protected from light. Compound dilutions were prepared fresh on the day. The first series of dilutions in 100% DMSO were done first thing in the morning. Only once blood had been collected and arrived in laboratory was the next set of dilutions into PBS carried out (1:10 PBS, 10% DMSO). This limited the exposure of diluted compound to plastic and made sure the exposure timing was consistent between assays.
Compound dilutions in 100% DMSO were prepared as described previously. Human whole blood was collected in K2 EDTA Vacutainers. Once blood was in the laboratory, compound dilutions into PBS were carried out as described previously and depicted in Table 1.
The outer wells of the deep well assay plate were filled with 1200 μl of sterile distilled H2O in an effort to limit edge effects (rows A1-H1, A1-A12, A12-H12).
An IL-8 dose response was determined for each blood donor examined, to monitor the donor response to IL-8. At this step in assay preparation for the IL-8 dose response samples 10 μl of PBS was added to designated wells. In addition the assay window without DMSO was also assessed each day. For such samples at this step in assay preparation 10 μl of PBS was added in the place of 10% DMSO.
Lids were placed on the 96 well plates and samples were incubated for 15 minutes at 37° C. in a water-bath.
Following the compound pre-incubation 10× final IL-8 was added to appropriate wells (10 μl of 20 nM working stock IL-8, final IL-8 concentration in blood=2 nM) and 10 μl of PBS was added to the un-stimulated controls. 10× final dose response range IL-8 was also added to designated wells (final concentration range on assay plate was 200 nM to 0.0005 nM, 1:5 serial dilution in PBS). The IL-8 and PBS were added to appropriate wells across all assay plates in the same sequence as the blood to compound addition. […] Samples were incubated for 5 minutes at 37° C. in a water-bath. Following the incubation sample plates were transferred to ice where 250 μl of chilled Assay Fixative Buffer was added promptly to all wells.
Samples were incubated on ice for 7 minutes (no mixing). […] Once added samples were mixed once and incubated on ice for 30 minutes to achieve uniform red blood cells lysis. After lysis, 200 μl of sample was transferred to a 96 well microplate on ice. […] Granulocytes were identified based on differential side scatter (SSC) and forward scatter (FSC) characteristics.
The next data set concerns the target PI 3-kinase gamma (Homo sapiens, UniProt P48736). In words: TR-FRET Adapta assay, assay E. Format: biochemical. Particulars: read-out: Assay E PI3Kγ IC50.
The target in data set [6] is T2, PI 3-kinase beta. In words: Cellular assay I1, p-Akt (S473) in Rat-1 cells, Surefire format. The format is cell-based. Particulars: non-asterisked data: version I1 (Surefire format), Rat-1 cells; read-out: Assay I PI3Kβ IC50.
Target sequence in this assay (P42338 whole entry): as the sequence (P42338 whole entry) above
Target sequence in this assay (Q63787 whole entry partner): as the sequence (Q63787 whole entry partner) above
For data set [7], the target named is T3, PI 3-kinase alpha (Homo sapiens, UniProt P42336). In words: Kinase Glo Luminescent Kinase Assay (Kglo), assay A. The format is biochemical. The note with it: read-out: Assay A PI3Kα IC50.
The next data set has as its target PI 4-kinase beta (Homo sapiens, UniProt Q9UBF8). In words: Kinase Glo Luminescent Kinase Assay (Kglo), assay D. The format is biochemical. The note with it: read-out: Assay D PI4Kβ IC50.
Data set [8] addresses T3, PI 3-kinase alpha. In words: Cellular assay H1, p-Akt (S473) in Rat-1 cells, Surefire format. Particulars: non-asterisked data: version H1 (Surefire format), Rat-1 cells; read-out: Assay H PI3Kα IC50. The format is cell-based.

As usually defined, the IC50 is the concentration at which inhibition is half-maximal.

Like-named read-outs stand apart in the source and are kept apart here.

Chain of PI 4-kinase beta (Q9UBF8 whole entry): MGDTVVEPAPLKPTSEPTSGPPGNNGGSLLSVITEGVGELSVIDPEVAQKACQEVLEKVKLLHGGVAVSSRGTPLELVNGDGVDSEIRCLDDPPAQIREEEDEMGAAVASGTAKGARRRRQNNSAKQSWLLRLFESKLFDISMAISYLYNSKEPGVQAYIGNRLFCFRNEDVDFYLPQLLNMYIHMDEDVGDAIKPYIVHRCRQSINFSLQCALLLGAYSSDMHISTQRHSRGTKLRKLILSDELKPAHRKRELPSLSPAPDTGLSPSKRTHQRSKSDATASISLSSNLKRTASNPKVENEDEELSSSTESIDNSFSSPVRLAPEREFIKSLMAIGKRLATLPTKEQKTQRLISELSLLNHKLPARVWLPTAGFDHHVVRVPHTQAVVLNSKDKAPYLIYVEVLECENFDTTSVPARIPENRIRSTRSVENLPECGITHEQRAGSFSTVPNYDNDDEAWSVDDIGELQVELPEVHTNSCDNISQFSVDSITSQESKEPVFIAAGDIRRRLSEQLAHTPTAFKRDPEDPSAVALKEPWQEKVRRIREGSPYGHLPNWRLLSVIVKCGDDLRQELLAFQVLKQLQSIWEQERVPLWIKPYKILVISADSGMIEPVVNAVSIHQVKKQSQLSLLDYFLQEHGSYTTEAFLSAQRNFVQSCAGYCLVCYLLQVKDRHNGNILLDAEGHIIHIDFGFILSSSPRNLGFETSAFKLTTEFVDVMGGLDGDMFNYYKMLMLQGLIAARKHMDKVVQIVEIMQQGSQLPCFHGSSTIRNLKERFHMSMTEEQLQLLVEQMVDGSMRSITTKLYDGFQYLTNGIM
Chain of Vps34 (Q8NEB9 whole entry, species assumed): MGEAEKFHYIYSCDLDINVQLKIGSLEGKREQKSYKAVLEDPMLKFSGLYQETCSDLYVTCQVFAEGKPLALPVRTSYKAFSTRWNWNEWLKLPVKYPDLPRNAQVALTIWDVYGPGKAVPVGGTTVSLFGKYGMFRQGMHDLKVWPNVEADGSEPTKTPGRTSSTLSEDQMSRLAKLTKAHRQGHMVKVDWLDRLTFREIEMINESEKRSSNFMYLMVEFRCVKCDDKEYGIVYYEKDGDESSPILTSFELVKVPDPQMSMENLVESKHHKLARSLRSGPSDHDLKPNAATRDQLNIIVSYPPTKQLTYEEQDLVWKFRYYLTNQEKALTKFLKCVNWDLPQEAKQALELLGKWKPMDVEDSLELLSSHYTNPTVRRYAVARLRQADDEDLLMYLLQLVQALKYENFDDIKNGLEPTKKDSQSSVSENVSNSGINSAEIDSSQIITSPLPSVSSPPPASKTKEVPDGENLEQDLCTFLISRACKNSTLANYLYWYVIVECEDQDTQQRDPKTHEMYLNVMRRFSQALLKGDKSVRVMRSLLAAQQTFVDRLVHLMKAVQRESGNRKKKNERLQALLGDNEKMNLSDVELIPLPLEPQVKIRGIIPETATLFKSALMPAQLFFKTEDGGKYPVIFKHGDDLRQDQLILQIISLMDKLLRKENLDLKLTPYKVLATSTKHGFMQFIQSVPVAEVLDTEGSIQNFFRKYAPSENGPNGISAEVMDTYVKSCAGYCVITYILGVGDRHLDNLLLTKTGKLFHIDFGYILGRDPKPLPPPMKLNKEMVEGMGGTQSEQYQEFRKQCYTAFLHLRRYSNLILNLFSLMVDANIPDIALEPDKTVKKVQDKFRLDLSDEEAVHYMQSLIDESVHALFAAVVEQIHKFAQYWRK
Method for mTOR: Lanthascreen™ Kinase Binding Assay for mTOR (G)
Binding of an inhibitor to the kinase competes for binding with the tracer, resulting in a loss of FRET.
50 nL of compound dilutions were dispensed onto white 384-well small volume polystyrene plate.

For the compound `Cc1ccc(S(=O)(=O)NC2CC3(CC(O)C3)C2)cc1-c1cnc(N)c(-c2cn(C)nc2C)n1` (single isomer, unassigned) [Example 9b, (R)-3-[5-Amino-6-(1,3-dimethyl-1H-pyrazol-4-yl)-pyrazin-2-yl]-N-(6-hydroxy-spiro[3.3]hept-2-yl)-4-methyl-benzenesulfonamide or (S)-3-[5-Amino-6-(1,3-dimethyl-1H-pyrazol-4-yl)-pyrazin-2-yl]-N-(6-hydroxy-spiro[3.3]hept-2-yl)-4-methyl-benzenesulfonamide], the IC50 on PI 3-kinase delta [1] is 0.24 µM; at Vps34 it was > 10 µM; on mTOR, > 10 µM; at PI 3-kinase beta [2] it was 1.2 µM; at PI 3-kinase delta [3] it was 7.64 µM; in [5] it was 0.335 µM. The values for the IC50 at PI 3-kinase gamma and on PI 3-kinase beta [6] were 0.012 µM and > 10 µM, respectively. For the same compound, the “Assay M RLM CI(int)” value in [4] stood at 27 µL/min/mg.
`Cc1ccc(S(=O)(=O)NCC(C)(C)O)cc1-c1cnc(N)c(-c2cnn(C)c2)n1` [Example 46.2, 3-(5-Amino-6-(1-methyl-1H-pyrazol-4-yl)pyrazin-2-yl)-N-(2-hydroxy-2-methylpropyl)-4-methylbenzenesulfonamide]: the IC50 at PI 3-kinase alpha [7] is 0.48 µM; at PI 3-kinase delta [1], 0.73 µM; at Vps34, > 10 µM; on mTOR, 9.7 µM; on PI 3-kinase beta [2], 2 µM; on PI 4-kinase beta, 6.2 µM. The IC50 in data set [5] (Homo sapiens, Neutrophil) turned out to be 0.597 µM; on PI 3-kinase gamma, 0.054 µM. Further, the “Assay M RLM CI(int)” value in data set [4] was determined as 49 µL/min/mg.
For `Cc1ccc(S(=O)(=O)NCC(C)(C)O)cc1-c1cnc(N)c(-n2cc(C)c(C)n2)n1` [Example 47, 3-(5-Amino-6-(3,4-dimethyl-1H-pyrazol-1-yl)pyrazin-2-yl)-N-(2-hydroxy-2-methylpropyl)-4-methyl benzenesulfonamide], the IC50 at PI 3-kinase alpha [7] was 0.33 µM; on PI 3-kinase delta [1] it was 0.53 µM; on Vps34, > 10 µM; at mTOR, > 10 µM; at PI 3-kinase beta [2] it was 6 µM; on PI 4-kinase beta it was 8.7 µM. In addition, the IC50 was 3.14 µM in data set [5] (Homo sapiens, Neutrophil) and 0.049 µM at PI 3-kinase gamma. Moreover, the “Assay M RLM CI(int)” value in data set [4] came to 140 µL/min/mg.
Turning to `Cc1nc(C)n(-c2nc(-c3cc(S(=O)(=O)NCC(C)(C)O)ccc3C)cnc2N)n1` [Example 49, 3-(5-Amino-6-(3,5-dimethyl-1H-1,2,4-triazol-1-yl)pyrazin-2-yl)-N-(2-hydroxy-2-methylpropyl)-4-methylbenzenesulfonamide], the IC50 is 0.62 µM at PI 3-kinase alpha [7]; 1.7 µM on PI 3-kinase delta [1]; > 10 µM on Vps34; > 10 µM on mTOR; 5.3 µM on PI 3-kinase beta [2]; > 10 µM at PI 4-kinase beta. The IC50 in data set [5] (Homo sapiens, Neutrophil) stood at 0.856 µM; on PI 3-kinase gamma it was 0.049 µM. For the same compound, the “Assay M RLM CI(int)” value in data set [4] was determined as 20 µL/min/mg.
As to `Cc1ccc(S(=O)(=O)N[C@H]2CC[C@H](O)CC2)cc1-c1cnc(N)c(-c2cncnc2)n1` [Example 59, Trans-3-(5-Amino-6-(pyrimidin-5-yl)pyrazin-2-yl)-N-(-4-hydroxycyclohexyl)-4-methylbenzenesulfonamide], the IC50 is 0.91 µM on PI 3-kinase alpha [7]; 0.41 µM on PI 3-kinase delta [1]; > 9.1 µM at Vps34; 6.02 µM on mTOR; 5.29 µM on PI 3-kinase beta [2]; 8.47 µM at PI 3-kinase alpha [8]. The IC50 on PI 3-kinase delta [3] is 6.42 µM; at PI 4-kinase beta it was > 9.1 µM; in data set [5] (Homo sapiens, Neutrophil), 0.801 µM; on PI 3-kinase gamma it was 0.105 µM.
As for `Cc1cc(-c2nc(-c3cc(S(=O)(=O)NCCC(C)(C)O)ccc3C)cnc2N)on1` [Example 89, 3-(5-Amino-6-(3-methylisoxazol-5-yl)pyrazin-2-yl)-N-(3-hydroxy-3-methylbutyl)-4-methylbenzenesulfonamide], the IC50 at PI 3-kinase alpha [7] was 0.42 µM; on PI 3-kinase delta [1] it was 0.84 µM; at Vps34 it was 3.4 µM; at mTOR, > 10 µM; on PI 3-kinase beta [2] it was 1.3 µM; on PI 4-kinase beta, 7 µM. Further, the IC50 in data set [5] (Homo sapiens, Neutrophil) was 3.7 µM. Further, the “Assay M RLM CI(int)” value in data set [4] worked out at 46 µL/min/mg.
As for `Cc1noc(-c2nc(-c3cc(S(=O)(=O)NCC(C)(C)CO)ccc3C)cnc2N)n1` [Example 92, 3-(5-Amino-6-(3-methyl-1,2,4-oxadiazol-5-yl)pyrazin-2-yl)-N-(3-hydroxy-2,2-dimethylpropyl)-4-methylbenzenesulfonamide], the IC50 on PI 3-kinase alpha [7] is 1.4 µM; on PI 3-kinase delta [1], 0.69 µM; at Vps34, > 9.1 µM; on mTOR it was > 9.1 µM; at PI 3-kinase beta [2], 8.2 µM; at PI 4-kinase beta, > 9.1 µM. Also, the IC50 in data set [5] (Homo sapiens, Neutrophil) came to 1.16 µM; on PI 3-kinase gamma it was 0.073 µM. For the same compound, the “Assay M RLM CI(int)” value in [4] is 64 µL/min/mg.
For the compound `Cc1ccc(S(=O)(=O)NC[C@H]2C[C@@H](O)C2)cc1-c1cnc(N)c(-c2nc(C3CC3)no2)n1` [Example 94, 3-(5-Amino-6-(3-cyclopropyl-1,2,4-oxadiazol-5-yl)pyrazin-2-yl)-N-(((1s,3s)-3-hydroxycyclobutyl)methyl)-4-methylbenzenesulfonamide], the IC50 is 1.7 µM on PI 3-kinase alpha [7]; 0.57 µM on PI 3-kinase delta [1]; > 9.1 µM at Vps34; 8.9 µM at mTOR; > 9.1 µM on PI 3-kinase beta [2]; 2.98 µM on PI 3-kinase alpha [8]. Further, the IC50 on PI 3-kinase delta [3] is 2.09 µM; on PI 4-kinase beta, > 9.1 µM; in data set [5] (Homo sapiens, Neutrophil) it was 3.78 µM; at PI 3-kinase gamma, 0.014 µM; at PI 3-kinase beta [6], 8.96 µM.
On to `Cc1ccc(S(=O)(=O)NCC(C)(C)O)cc1-c1cnc(N)c(-n2cnc(C3CC3)n2)n1` [Example 109, 3-(5-Amino-6-(3-cyclopropyl-1H-1,2,4-triazol-1-yl)pyrazin-2-yl)-N-(2-hydroxy-2-methylpropyl)-4-methyl benzenesulfonamide], for which the IC50 on PI 3-kinase alpha [7] was 0.44 µM; on PI 3-kinase delta [1] it was 0.69 µM; at Vps34, > 10 µM; at PI 3-kinase beta [2] it was 3 µM; on PI 3-kinase alpha [8], 2.61 µM; on PI 3-kinase delta [3], 1.9 µM. In addition, the IC50 was 8.6 µM at PI 4-kinase beta; 0.935 µM in data set [5] (Homo sapiens, Neutrophil); 0.028 µM at PI 3-kinase gamma; > 10 µM on PI 3-kinase beta [6]. In addition, in data set [4], the “Assay M RLM CI(int)” value was <3.4 µL/min/mg.
Regarding `Cc1cc(-c2nc(-c3cc(S(=O)(=O)NC4CC(F)(F)C4)ccc3C)cnc2N)ccn1` [Example 129.2, 3-(5-amino-6-(2-methylpyridin-4-yl)pyrazin-2-yl)-N-(3,3-difluorocyclobutyl)-4-methylbenzenesulfonamide], the IC50 at PI 3-kinase alpha [7] is 0.28 µM; on PI 3-kinase delta [1], 1.2 µM; on Vps34 it was > 9.1 µM; at mTOR it was 6.1 µM; at PI 3-kinase beta [2] it was 4.3 µM; at PI 4-kinase beta, 7 µM. Also, the IC50 in data set [5] (Homo sapiens, Neutrophil) worked out at 2.42 µM; on PI 3-kinase gamma, 0.022 µM. Also, the “Assay M RLM CI(int)” value in data set [4] was determined as 130 µL/min/mg.
With `Cc1cc(-c2nc(-c3cc(S(=O)(=O)NCC4(O)CCC4)ccc3C)cnc2N)ccn1` [Example 129.5, 3-(5-amino-6-(2-methylpyridin-4-yl)pyrazin-2-yl)-N-((1-hydroxycyclobutyl)methyl)-4-methylbenzenesulfonamide], the IC50 is 0.27 µM at PI 3-kinase alpha [7]; 0.57 µM on PI 3-kinase delta [1]; > 9.1 µM at Vps34; 6.5 µM on mTOR; > 9.1 µM at PI 3-kinase beta [2]; 5 µM on PI 4-kinase beta. Besides, the IC50 in [5] (Homo sapiens, Neutrophil) is 1.17 µM; on PI 3-kinase gamma, 0.038 µM. The “Assay M RLM CI(int)” value in [4] worked out at 79 µL/min/mg.
Take `Cc1ccc(S(=O)(=O)NCCC(C)(C)O)cc1-c1cnc(N)c(-c2nc(C3CC3)no2)n1` [Example 143, 3-(5-Amino-6-(3-cyclopropyl-1,2,4-oxadiazol-5-yl)pyrazin-2-yl)-N-(3-hydroxy-3-methylbutyl)-4-methylbenzenesulfonamide]: the IC50 at Vps34 is > 9.1 µM; on mTOR, 2.19 µM; at PI 3-kinase alpha [8] it was 2.35 µM; on PI 3-kinase delta [3] it was 1.01 µM; at PI 4-kinase beta it was > 9.1 µM; in data set [5] (Homo sapiens, Neutrophil) it was 1.7 µM. Further, the IC50 on PI 3-kinase beta [6] was determined as 6.03 µM. The “Assay M RLM CI(int)” value in [4] turned out to be 134 µL/min/mg.

The values are drawn from patent publication US10004732B2 (Novartis AG, priority 2014, dated 2018).
